Experimental data taken from patent publication US20150072020A1, “Dexanabinol or a Derivative Thereof for Use in the Treatment of Cancer in Dose Ranges of 2-30 mg/kg” (E-THERAPEUTICS PLC, priority 2012, published 2015).

Experiments:
CDK5 = CDK5 (Homo sapiens, UniProt Q00535); test: direct assay of dexanabinol against CDK5; assay type: biochemical; conditions: when directly assayed; heading names CDK5/p25
Text: (§1) However, we believe that CDKs are affected indirectly, in circumstances where more of the intracellular network that might mediate such effects remains present.

CDK2 = CDK2 (Homo sapiens, UniProt P24941); test: direct assay of dexanabinol against CDK2; assay type: biochemical; conditions: when directly assayed; heading names CDK2/A
Text: as §1

CDK5, sequence (Q00535 whole entry, species assumed): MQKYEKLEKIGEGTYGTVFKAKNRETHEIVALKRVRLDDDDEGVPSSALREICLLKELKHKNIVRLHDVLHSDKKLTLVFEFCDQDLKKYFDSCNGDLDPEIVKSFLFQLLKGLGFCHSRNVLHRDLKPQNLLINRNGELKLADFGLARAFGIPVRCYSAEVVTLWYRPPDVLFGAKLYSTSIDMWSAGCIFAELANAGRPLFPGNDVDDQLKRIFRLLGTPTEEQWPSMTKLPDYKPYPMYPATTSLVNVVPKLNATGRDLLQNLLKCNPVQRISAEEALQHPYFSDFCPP
CDK5, sequence (Q15078 99-307 partner limits assumed, species assumed): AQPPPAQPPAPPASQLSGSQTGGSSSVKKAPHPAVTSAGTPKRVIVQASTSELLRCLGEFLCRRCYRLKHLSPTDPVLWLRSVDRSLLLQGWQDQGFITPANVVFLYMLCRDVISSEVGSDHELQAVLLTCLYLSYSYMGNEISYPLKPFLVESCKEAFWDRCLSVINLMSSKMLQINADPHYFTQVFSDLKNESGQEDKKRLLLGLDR

SMILES: CCCCCCC(C)(C)c1cc(O)c2c(c1)OC(C)(C)[C@H]1CC=C(CO)C[C@H]21 [Dexanabinol, 1, 1 dimethyl heptyl-(3S, 4S)-7-hydroxy-Δ^6-tetrahydrocannabinol]
- direct activity against CDK5 (CDK5): no significant direct activity
- direct activity against CDK2 (CDK2): no significant direct activity
